Target: MC4-R (Homo sapiens, UniProt P32245)
Experiment: cAMP Scintillation Proximity Assay (SPA) in cells expressing MC4-R
Assay type: cell-based
Conditions: intercellular cAMP concentration by SPA kit, read-out: in vitro potency (as measured by EC50 value)
Experimental: EC50 values of test compounds were determined by treating cells expressing MC4-R with test compound and lysing the cells and measuring intercellular cAMP concentration with an Amersham-Pharmacia RPA-559 cAMP Scintillation Proximity Assay (SPA) kit. The following compounds were synthesized and tested according to this assay. The following compounds are merely illustrative and should not be construed as limiting of the instant invention.

Chain of MC4-R (P32245 whole entry, species assumed): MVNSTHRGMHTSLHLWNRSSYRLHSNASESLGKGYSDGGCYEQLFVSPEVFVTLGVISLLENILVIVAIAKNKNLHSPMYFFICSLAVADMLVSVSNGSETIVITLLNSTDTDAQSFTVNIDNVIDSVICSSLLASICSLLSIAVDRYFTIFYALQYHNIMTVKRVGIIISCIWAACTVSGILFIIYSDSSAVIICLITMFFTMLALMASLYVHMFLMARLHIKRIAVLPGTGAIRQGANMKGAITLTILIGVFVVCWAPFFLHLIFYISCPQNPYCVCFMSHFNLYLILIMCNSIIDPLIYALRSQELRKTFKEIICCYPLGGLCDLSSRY

SMILES | EC50
C[C@@H]1[C@@H](N=C(Nc2ccc3c(c2)CCN(CCc2ccc(Cl)cc2Cl)C3=O)N2CCN[C@@H](C)C2)C[C@H]2C[C@@H]1C2(C)C [Example 22, (3S)-N-{2-[2-(2,4-dichlorophenyl)ethyl]-1-oxo-1,2,3,4-tetrahydroisoquinolin-6-yl}-3-methyl-N′-[(1S,2S,3S,5R)-2,6,6-trimethylbicyclo[3.1.1]hept-3-yl]piperazine-1-carboximidamide] | < 3 µM
Cc1ccc(CCN2Cc3ccc(NC(=N[C@H]4C[C@H]5C[C@@H]([C@@H]4C)C5(C)C)N4CCN[C@@H](C)C4)cc3C2=O)c(C)c1 [Example 21, (3S)-N-{2-[2-(2,4-dimethylphenyl)ethyl]-3-oxo-2,3-dihydro-1H-isoindol-5-yl}-3-methyl-N′-[(1S,2S,3S,5R)-2,6,6-trimethylbicyclo[3.1.1]hept-3-yl]piperazine-1-carboximidamide] | < 3 µM
C[C@@H]1[C@@H](N=C(Nc2ccc3c(c2)C(=O)N(CCc2ccc(Cl)cc2Cl)C3)N2CCN[C@@H](C)C2)C[C@H]2C[C@@H]1C2(C)C [Example 3, (3S )-N-{2-[2-(2,4-dichlorophenyl)ethyl]-3-oxo-2,3-dihydro-1H-isoindol-5-yl}-3-methyl-N′-[(1S,2S,3S,5R)-2,6,6-trimethylbicyclo[3.1.1]hept-3-yl]piperazine-1-carboximidamide] | < 3 µM
Cc1ccc(CCN2Cc3cc(NC(=N[C@H]4C[C@H]5C[C@@H]([C@@H]4C)C5(C)C)N4CCN[C@@H](C)C4)ccc3C2=O)c(C)c1 [Example 20, (3S)-N-{2-[2-(2,4-dimethylphenyl)ethyl]-1-oxo-2,3-dihydro-1H-isoindol-5-yl}-3-methyl-N′-[(1S,2S,3S,5R)-2,6,6-trimethylbicyclo[3.1.1]hept-3-yl]piperazine-1-carboximidamide] | < 3 µM
C[C@@H]1[C@@H](N=C(Nc2ccc3c(c2)CN(CCc2ccc(F)cc2F)C3=O)N2CCN[C@@H](C)C2)C[C@H]2C[C@@H]1C2(C)C [Example 18, (3S)-N-{2-[2-(2,4-difluorophenyl)ethyl]-1-oxo-2,3-dihydro-1H-isoindol-5-yl}-3-methyl-N′-[(1S,2S,3S,5R)-2,6,6-trimethylbicyclo[3.1.1]hept-3-yl]piperazine-1-carboximidamide] | < 3 µM
C[C@@H]1[C@@H](/N=C(\Nc2ccc3[nH]c(CCc4ccc(Cl)cc4Cl)nc3c2)N2CCN[C@@H](C)C2)C[C@H]2C[C@@H]1C2(C)C [Example 23, (3S)-N-{2-[2-(2,4-dichlorophenyl)ethyl]-1H-benzimidazol-5-yl}-3-methyl-N′-[(1S,2S,3S,5R)-2,6,6-trimethylbicyclo[3.1.1]hept-3-yl]piperazine-1-carboximidamide] | < 3 µM
C[C@@H]1[C@@H](N=C(Nc2ccc3c(c2)CN([C@H](CO)Cc2ccc(Cl)cc2Cl)C3=O)N2CCN[C@@H](C)C2)C[C@H]2C[C@@H]1C2(C)C [Example 9, (3S)-N-{2-[(1S)-1-(2,4-dichlorobenzyl)-2-hydroxyethyl]-1-oxo-2,3-dihydro-1H-isoindol-5yl}-3-methyl-N′-[(1S,2S,3S,5R)-2,6,6-trimethylbicyclo[3.1.1]hept-3-yl]piperazine-1-carboximidamide] | < 3 µM
COc1ccc(CCN2C(=O)c3ccc(NC(=N[C@H]4C[C@H]5C[C@@H]([C@@H]4C)C5(C)C)N4CCN[C@@H](C)C4)cc3C2=O)c(OC)c1 [Example 12, (3S)-N-{2-[2-(2,4-dimethoxyphenyl)ethyl]-1,3-dioxo-2,3-dihydro-1H-isoindol-5-yl}-3-methyl-N′-[(1S,2S,3S,5R)-2,6,6-trimethylbicyclo[3.1.1]hept-3-yl]piperazine-1-carboximidamide] | < 3 µM
COc1ccc(CCN2Cc3cc(NC(=N[C@H]4C[C@H]5C[C@@H]([C@@H]4C)C5(C)C)N4CCN[C@@H](C)C4)ccc3C2=O)c(F)c1 [Example 17, (3S)-N-{2-[2-(2-fluoro-4-methoxyphenyl)ethyl]-1-oxo-2,3-dihydro-1H-isoindol-5-yl}-3-methyl-N′-[(1S,2S,3S,5R)-2,6,6-trimethylbicyclo[3.1.1]hept-3-yl]piperazine-1-carboximidamide] | < 3 µM
C[C@@H]1[C@@H](N=C(Nc2ccc3c(c2)C(=O)N(CCc2ccc(F)cc2F)C3)N2CCN[C@@H](C)C2)C[C@H]2C[C@@H]1C2(C)C [Example 19, (3S)-N-{2-[2-(2,4-difluorophenyl)ethyl]-3-oxo-2,3-dihydro-1H-isoindol-5-yl}-3-methyl-N′-[(1S,2S,3S,5R)-2,6,6-trimethylbicyclo[3.1.1]hept-3-yl]piperazine-1-carboximidamide] | < 3 µM
Cc1ccc(CCc2nc3ccc(NC(=N[C@H]4C[C@H]5C[C@@H]([C@@H]4C)C5(C)C)N4CCN[C@@H](C)C4)cc3[nH]2)c(C)c1 [Example 24, (3S)-N-{2-[2-(2,4-dimethylphenyl)ethyl]-1H-benzimidazol-6-yl}-3-methyl-N′-[(1S,2S,3S,5R)-2,6,6-trimethylbicyclo[3.1.1]hept-3-yl]piperazine-1-carboximidamide] | < 3 µM

The next lines start with the values.

EC50 | SMILES
< 3 µM | C[C@@H]1[C@@H](N=C(Nc2ccc3c(c2)C(=O)N([C@H](CO)Cc2ccccc2)C3=O)N2CCN[C@@H](C)C2)C[C@H]2C[C@@H]1C2(C)C [Example 5, (3S)-N-{2-[(1S)-1-benzyl-2-hydroxyethyl]-1,3-dioxo-2,3-dihydro-1H-isoindol-5-yl}-3-methyl-N′-[(1S,2S,3S,5R)-2,6,6-trimethylbicyclo[3.1.1]hept-3-yl]piperazine-1-carboximidamide]
< 3 µM | C[C@@H]1[C@@H](N=C(Nc2ccc3c(c2)C(=O)N([C@@H](CO)[C@H](O)c2ccccc2)C3=O)N2CCN[C@@H](C)C2)C[C@H]2C[C@@H]1C2(C)C [Example 16, (3S )-N-{2-[(1S,2R)-2-hydroxy-1-(hydroxymethyl)-2-phenylethyl]-1,3-dioxo-2,3-dixo-2,3-dihydro-1H-isoindol-5-yl}-3-methyl-N′-[(1S,2S,3S,5R)-2,6,6-trimethylbicyclo[3.1.1]hept-3-yl]piperazine-1-carboximidamide]
< 3 µM | C[C@@H]1[C@@H](N=C(Nc2ccc3c(c2)C(=O)N([C@@H](CO)[C@@H](O)c2ccccc2)C3=O)N2CCN[C@@H](C)C2)C[C@H]2C[C@@H]1C2(C)C [Example 14, (3S)-N-{2-[(1S ,2S)-2-hydroxy-1-(hydroxymethyl)-2-phenylethyl]-1,3-dioxo-2,3-dihydro-1H-isoindol-5yl}-3-methyl-N′-[(1S,2S,3S,5R)-2,6,6-trimethylbicyclo[3.1.1]hept-3-yl]piperazine-1-carboximidamide]
< 3 µM | C[C@@H]1[C@@H](N=C(Nc2ccc3c(c2)C(=O)N([C@H](CO)[C@H](O)c2ccccc2)C3=O)N2CCN[C@@H](C)C2)C[C@H]2C[C@@H]1C2(C)C [Example 15, (3S)-N-{2-[(1R,2R)-2-hydroxy-1-(hydroxymethyl)-2-phenylethyl]-1,3-dioxo-2,3-dihydro-1H-isoindol-5-yl}-3-methyl-N′-[(1S,2S,3S,5R)-2,6,6-trimethylbicyclo[3.1.1]hept-3-yl]piperazine-1-carboximidamide]
< 3 µM | C[C@@H]1[C@@H](N=C(Nc2ccc3c(c2)C(=O)N(CCc2ccc(F)cc2F)C3=O)N2CCN[C@@H](C)C2)C[C@H]2C[C@@H]1C2(C)C [Example 11, (3S)-N-{2-[2-(2,4-difluorophenyl)ethyl]-1,3-dioxo-2,3-dihydro-1H-isoindol-5yl}-3-methyl-N′-[(1S,2S,3S,5R)-2,6,6-trimethylbicyclo[3.1.1]hept-3-yl]piperazine-1-carboximidamide]
< 3 µM | C[C@@H]1[C@@H](N=C(Nc2ccc3c(c2)C(=O)N([C@H](CO)Cc2ccc(Cl)cc2Cl)C3=O)N2CCN[C@@H](C)C2)C[C@H]2C[C@@H]1C2(C)C [Example 8, (3S )-N-{2-[(1S)-1-(2,4-dichlorobenzyl)-2-hydroxyethyl]-1,3-dioxo-2,3-dihydro-1H-isoindol-5yl}-3-methyl-N′-[(1S,2S,3S,5R)-2,6,6-trimethylbicyclo[3.1.1]hept-3-yl]piperazine-1-carboximidamide]
< 3 µM | Cc1ccc(CCN2C(=O)c3ccc(NC(=N[C@H]4C[C@H]5C[C@@H]([C@@H]4C)C5(C)C)N4CCN[C@@H](C)C4)cc3C2=O)c(C)c1 [Example 13, (3S)-N-{2-[2-(2,4-dimethylphenyl)ethyl]-1,3-dioxo-2,3-dihydro-1H-isoindol-5-yl}-3-methyl-N′-[(1S,2S,3S,5R)-2,6,6-trimethylbicyclo[3.1.1]hept-3-yl]piperazine-1-carboximidamide]
< 3 µM | COc1ccc(CCN2C(=O)c3ccc(NC(=N[C@H]4C[C@H]5C[C@@H]([C@@H]4C)C5(C)C)N4CCN[C@@H](C)C4)cc3C2=O)c(F)c1 [Example 10, (3S)-N-{2-[2-(2-fluoro-4-methoxyphenyl)ethyl]-1,3-dioxo-2,3-dihydro-1H-isoindol-5yl}-3-methyl-N′-[(1S,2S,3S,5R)-2,6,6-trimethylbicyclo[3.1.1]hept-3-yl]piperazine-1-carboximidamide]
< 3 µM | C[C@@H]1[C@@H](N=C(Nc2ccc3c(c2)C(=O)N([C@@H](CO)Cc2ccccc2)C3=O)N2CCN[C@@H](C)C2)C[C@H]2C[C@@H]1C2(C)C [Example 6, (3S)-N-{2-[(1R)-1-benzyl-2-hydroxyethyl]-1,3-dioxo-2,3-dihydro-1H-isoindol-5-yl}-3-methyl-N′-[(1S,2S,3S,5R)-2,6,6-trimethylbicyclo[3.1.1]hept-3-yl]piperazine-1-carboximidamide]
< 3 µM | C[C@@H]1[C@@H](N=C(Nc2ccc3c(c2)C(=O)N(Cc2ccc(Cl)cc2Cl)C3=O)N2CCN[C@@H](C)C2)C[C@H]2C[C@@H]1C2(C)C [Example 4, (3S)-N-[2-(2,4-dichlorobenzyl)-1,3-dioxo-2,3-dihydro-1H-isoindol-5-yl]-3-methyl-N′-[(1S,2S,3S,5R)-2,6,6-trimethylbicyclo[3.1.1]hept-3-yl]piperazine-1-carboximidamide]
